Test systems include NCI/ADR-RES ovarian; OVCAR-5 ovarian; PC-3 prostate; OVCAR-4 ovarian; ACHN renal; HCC-2998 colon; SN12C renal; SK-MEL-28 melanoma.
What all share (assay): inhibition of tumour cell growth, NCI panel, 48 h

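Values below derive from 48-hour exposures of cells grown in 96-well plates, with endpoints linearly interpolated between the two concentrations bracketing the appropriate inhibition level. GI50 is the concentration that inhibits growth by half. TGI marks complete inhibition of growth.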

Consider `COc1cc(N2C(=O)[C@H](Cl)C2c2ccc(SC)cc2)cc(OC)c1OC` (stereo partly drawn), for which the GI50 is 0.0356 µM in the test on NCI/ADR-RES ovarian; 0.411 µM in the test with OVCAR-5 ovarian; 0.0952 µM in the test with PC-3 prostate; 0.0647 µM in the test on OVCAR-4 ovarian; 0.061 µM in the test on ACHN renal; 0.235 µM in the test on HCC-2998 colon. Also, the GI50 in the test with SN12C renal was 0.348 µM. Further, the TGI with NCI/ADR-RES ovarian is over 100 µM; in the test on OVCAR-5 ovarian, over 100 µM; in the test with PC-3 prostate it was over 100 µM; with OVCAR-4 ovarian, over 100 µM; with ACHN renal it was 71.3 µM; in the test with HCC-2998 colon, over 100 µM. In the test with SN12C renal, this molecule showed a TGI of over 100 µM.

As for `COc1cc(O)ccc1C(=S)SC`, the TGI in the test on NCI/ADR-RES ovarian, with OVCAR-5 ovarian, in the test on PC-3 prostate, in the test with OVCAR-4 ovarian, in the test with ACHN renal and in the test with SK-MEL-28 melanoma was over 100 µM each time. This molecule registered a TGI in the test on SN12C renal of 9.56 µM.

For `Oc1ccc(Cl)cc1C=Nc1cnc2ccccc2c1`, the TGI is over 100 µM in the test on NCI/ADR-RES ovarian; over 100 µM with OVCAR-5 ovarian; over 88.4 µM in the test on PC-3 prostate; over 100 µM with OVCAR-4 ovarian; over 100 µM in the test on ACHN renal; over 100 µM with SK-MEL-28 melanoma. For the same molecule, in the test on SN12C renal, the TGI is over 100 µM.

Consider `O=C1NC(=NCCc2ccc(Cl)cc2)S/C1=C\c1ccc2ncccc2c1`, for which the GI50 in the test with NCI/ADR-RES ovarian is 19.5 µM; in the test on OVCAR-5 ovarian it was over 25 µM; in the test with PC-3 prostate it was over 25 µM; in the test with OVCAR-4 ovarian, 8.94 µM; in the test with ACHN renal it was 24.6 µM; in the test on SK-MEL-28 melanoma, over 25 µM. Moreover, the GI50 in the test with HCC-2998 colon and in the test on SN12C renal was over 25 µM each time. Further, the TGI with NCI/ADR-RES ovarian, with OVCAR-5 ovarian, in the test on PC-3 prostate, with OVCAR-4 ovarian, in the test with ACHN renal and in the test with SK-MEL-28 melanoma was over 25 µM each time. Further, the TGI in the test with HCC-2998 colon and with SN12C renal was over 25 µM each time.

Regarding `COC1=CC(=O)O/C1=C(\OC)C1OC1c1ccccc1` (stereo not drawn), the TGI in the test on NCI/ADR-RES ovarian, with OVCAR-5 ovarian, in the test with PC-3 prostate, in the test with OVCAR-4 ovarian, in the test with ACHN renal and with SK-MEL-28 melanoma was over 100 µM each time. The TGI with HCC-2998 colon and with SN12C renal was over 100 µM each time.

In the case of `CCCCNC(c1ccc(Cl)cc1)C(O)c1ccc(Cl)cc1` (stereo not drawn), the GI50 in the test with NCI/ADR-RES ovarian was 1.81 µM; in the test on OVCAR-5 ovarian, 2.94 µM; in the test on PC-3 prostate, 1.92 µM; in the test on OVCAR-4 ovarian it was 2.87 µM; with ACHN renal it was 2.46 µM; in the test with SK-MEL-28 melanoma, 2.06 µM. Besides, the GI50 with HCC-2998 colon was 1.83 µM; in the test with SN12C renal it was 2.16 µM. The TGI in the test on NCI/ADR-RES ovarian was 5.35 µM; with OVCAR-5 ovarian it was 15.7 µM; in the test on PC-3 prostate, 7.47 µM; in the test with OVCAR-4 ovarian, 13.5 µM; in the test on ACHN renal, 7.36 µM; with SK-MEL-28 melanoma, 4.5 µM. The TGI was determined as 3.85 µM in the test with HCC-2998 colon and 10.6 µM in the test with SN12C renal.

Consider `COc1cc2c(cc1OCCNC(=O)/C=C1\C[C@H]3C=Nc4cc(OCc5ccccc5)c(OC)cc4C(=O)N3C1)N=C[C@@H]1CCCN1C2=O`, for which the GI50 with NCI/ADR-RES ovarian is over 100 µM; with OVCAR-5 ovarian, 4.07 µM; with PC-3 prostate, 3.53 µM; in the test with OVCAR-4 ovarian, 19.7 µM; in the test with ACHN renal, 25.8 µM; in the test with SK-MEL-28 melanoma it was 18.1 µM. For the same molecule, the GI50 in the test with SN12C renal was 2.68 µM. Also, the TGI in the test with NCI/ADR-RES ovarian was over 100 µM; in the test on OVCAR-5 ovarian, 26.3 µM; with PC-3 prostate it was 33.7 µM; in the test on OVCAR-4 ovarian, 65.5 µM; in the test with ACHN renal, 71.5 µM; in the test on SK-MEL-28 melanoma, 46.3 µM. The molecule also had a TGI in the test on SN12C renal of 15.8 µM.

For the molecule `O=C1NC(O)c2cc3ccccc3cc2O1` (stereo not drawn), the TGI in the test with NCI/ADR-RES ovarian, in the test on OVCAR-5 ovarian, in the test on PC-3 prostate, with OVCAR-4 ovarian, in the test on ACHN renal and with SK-MEL-28 melanoma was over 100 µM in each case. For the same molecule, the TGI in the test with HCC-2998 colon and in the test with SN12C renal was over 100 µM in each case.

Regarding `COc1cc2c(cc1C)NC(=O)/C2=C/c1ccnc2ccccc12`, the GI50 in the test on NCI/ADR-RES ovarian was 15.6 µM; in the test on OVCAR-5 ovarian, 30 µM; with PC-3 prostate, 7.07 µM; in the test on ACHN renal, 10.3 µM; in the test with SK-MEL-28 melanoma, 11.2 µM; in the test with HCC-2998 colon, 35.7 µM. Besides, the GI50 with SN12C renal is 12.6 µM. Also, the TGI is 41.2 µM in the test with NCI/ADR-RES ovarian; over 50 µM in the test on OVCAR-5 ovarian; over 50 µM in the test on PC-3 prostate; 25.6 µM in the test with ACHN renal; 46.8 µM in the test with SK-MEL-28 melanoma; over 50 µM in the test on HCC-2998 colon. The TGI in the test on SN12C renal is over 50 µM.

In the case of `O=c1[nH]c(C2CCCN2)nc2c1oc1ccc(Cl)cc12` (stereo not drawn), the GI50 with NCI/ADR-RES ovarian is over 100 µM; in the test with OVCAR-5 ovarian, over 100 µM; in the test on PC-3 prostate it was over 100 µM; with OVCAR-4 ovarian, over 39.1 µM; in the test with ACHN renal it was over 100 µM; with SK-MEL-28 melanoma, over 100 µM. For the same molecule, the GI50 in the test on HCC-2998 colon and with SN12C renal was over 100 µM in each case. Moreover, the TGI in the test with NCI/ADR-RES ovarian, in the test on OVCAR-5 ovarian, with PC-3 prostate, in the test with OVCAR-4 ovarian, in the test with ACHN renal and in the test on SK-MEL-28 melanoma was over 100 µM throughout. The TGI in the test with HCC-2998 colon and in the test with SN12C renal was over 100 µM in each case.

Regarding `COc1ccc(-n2c(=S)sc3c(Cl)nc(C)nc32)c(OC)c1`, the GI50 is 13.2 µM in the test on NCI/ADR-RES ovarian; 6.15 µM in the test on OVCAR-5 ovarian; 2.37 µM in the test with PC-3 prostate; 4.73 µM in the test with OVCAR-4 ovarian; 2.08 µM in the test with ACHN renal; 2.18 µM with SK-MEL-28 melanoma. The GI50 was 16.2 µM in the test on HCC-2998 colon and 2.85 µM with SN12C renal. Further, the TGI stood at 72.9 µM in the test on NCI/ADR-RES ovarian; 20.9 µM with OVCAR-5 ovarian; 5.91 µM in the test on PC-3 prostate; 15.6 µM with OVCAR-4 ovarian; 3.97 µM with ACHN renal; 4.6 µM with SK-MEL-28 melanoma. Besides, the TGI worked out at 31.1 µM in the test on HCC-2998 colon and 9.14 µM in the test on SN12C renal.

Take `C=C(Br)CN=CN(C)C`: the TGI in the test on NCI/ADR-RES ovarian, with OVCAR-5 ovarian, in the test with PC-3 prostate, in the test with OVCAR-4 ovarian, in the test on ACHN renal and in the test on SK-MEL-28 melanoma was over 100 µM in each case. The TGI in the test with SN12C renal was over 100 µM.

(Values after PubChem BioAssay (NCI).)
